Assay [1] concerns opioid receptors. To be noted: cited from earlier work.
In assay [2] the target is κ-opioid receptors (Homo sapiens, UniProt P41145). To be noted: cited from earlier work.
The subject of assay [3] is paclitaxel induced painful neuropathy. As to the kind of experiment: Paclitaxel induced painful neuropathy, cold allodynia (acetone drop test). The format is in vivo, Wistar rats. The settings on record: paclitaxel neuropathic rats. The source says:
(§1) The aim of this study was to evaluate the effect of oral administration of butorphanol in rats with paclitaxel induced painful neuropathy. The primary measurements were made mechanical and thermal allodynia designed to detect effects of the treatment(s) on neuropathic pain.
(§2) Wistar rats weighing 250±20 g were maintained on standard laboratory diet and having free access to tap water ad lib were employed in the present study. They were housed in the animal house and were exposed to 12 hr cycle of light and dark. The experiments were conducted in a semi-sound proof laboratory. Care of the animals was in accordance with guidelines for experimentation on animals.
Rats were injected on five alternate days (day 4, 6, 8, 10 & 12) with paclitaxel (2 mg/kg i.p.) using an injection volume of 2 ml/kg. Thus, the cumulative dose of paclitaxel was computed to be 10 mg/kg. Tests took place ten days after the last injection and continued over the next three weeks. […]
For the assessment of cold allodynia, which was stable for 3 weeks, the rats were placed on a wire mesh covered with a plastic dome and were allowed to habituate until the exploratory behavior diminished. Cold allodynia was measured as the number of foot withdrawal responses after application of stimuli to the plantar surface of the paw. […] Acetone was applied two times (once every 5 min) on the left paw, and the number of reactions (shaking, tapping, or licking) was counted during 30 sec. […] The score was expressed as accumulated numbers of reactions over the trials and determined before and 30 and 60 min after administration of the test drugs. Each individual test was expressed as a percentage of maximum possible effect (% MPE): […]
MPE (%) at 30 min time point was employed as a quantitative measure of the analgesic effect of the test drugs.
(§3) The anti-nociceptive effect was plotted assessed having time (relative to dosing time point) on the x-axis and percent maximum possible effect (% MPE) on the y-axis. The results were expressed as mean±standard error of means (S.E.M.). […]

Assay [4] concerns the target δ-opioid receptor (Homo sapiens, UniProt P41143). To be noted: cited from earlier work.
In assay [5] the test system is vincristine induced painful neuropathy. Nature of the assay: Vincristine induced painful neuropathy, mechanical allodynia (von Frey filaments). To be noted: vincristine neuropathic rats. It is filed as in vivo, Wistar rats.
Source text: The aim of this study was to evaluate the effect of oral administration of butorphanol in rats with vincristine induced painful neuropathy. The primary measurements were made mechanical and thermal allodynia designed to detect effects of the treatment(s) on neuropathic pain.
as §2
The vincristine model was adapted from Authier et al (1999). Rats were injected on five alternate days (day 4, 6, 8, 10 & 12) with vincristine (200 μg/kg i.p.) using an injection volume of 2 ml/kg. […]
(§4) Mechano-allodynia was assessed using von Frey filaments. […] Both hind paws were tested for allodynia and the average of the two was recorded as data. Results were expressed in grams and determined before and 30 and 60 min after the administration of the test drugs.
as §3

A short description of assay [6]: Tail flick test, intra-gastric, intra-ileal and intra-colonic butorphanol. It is filed as in vivo. An excerpt: FIG. 13: Time-effect curves depicting antinociceptive effect of intra-gastric, intra-ileal and intra-colonic butorphanol in the tail flick test. The percent maximum possible effect (% MPE) is plotted versus time.
FIG. 14: Time-effect curves depicting antinociceptive effect of intra-gastric, intra-ileal and intra-colonic butorphanol in the tail flick test. The percent maximum possible effect (% MPE) is plotted versus time.

Assay [7] deals with paclitaxel induced painful neuropathy. As to the kind of experiment: Paclitaxel induced painful neuropathy, mechanical allodynia (von Frey filaments). The settings on record: paclitaxel neuropathic rats. The format is in vivo, Wistar rats.
Source text: as §1, §2
Rats were injected on five alternate days (day 4, 6, 8, 10 & 12) with paclitaxel (2 mg/kg i.p.) using an injection volume of 2 ml/kg. Thus, the cumulative dose of paclitaxel was computed to be 10 mg/kg. […]
as §4, §3

Entries after “also recorded” stand apart in the source; their conditions may differ.

Chain of κ-opioid receptors (P41145 whole entry): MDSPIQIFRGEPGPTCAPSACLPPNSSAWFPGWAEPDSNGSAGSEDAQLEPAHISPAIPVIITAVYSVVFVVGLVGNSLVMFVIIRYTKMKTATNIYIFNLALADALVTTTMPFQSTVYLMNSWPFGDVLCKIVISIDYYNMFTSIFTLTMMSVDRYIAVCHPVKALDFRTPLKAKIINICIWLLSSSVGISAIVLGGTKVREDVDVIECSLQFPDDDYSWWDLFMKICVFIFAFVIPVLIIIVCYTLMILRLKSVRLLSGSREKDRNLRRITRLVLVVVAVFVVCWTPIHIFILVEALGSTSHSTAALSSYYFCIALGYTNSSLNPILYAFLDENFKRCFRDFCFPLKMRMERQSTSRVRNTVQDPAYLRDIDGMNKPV
Chain of δ-opioid receptor (P41143 whole entry): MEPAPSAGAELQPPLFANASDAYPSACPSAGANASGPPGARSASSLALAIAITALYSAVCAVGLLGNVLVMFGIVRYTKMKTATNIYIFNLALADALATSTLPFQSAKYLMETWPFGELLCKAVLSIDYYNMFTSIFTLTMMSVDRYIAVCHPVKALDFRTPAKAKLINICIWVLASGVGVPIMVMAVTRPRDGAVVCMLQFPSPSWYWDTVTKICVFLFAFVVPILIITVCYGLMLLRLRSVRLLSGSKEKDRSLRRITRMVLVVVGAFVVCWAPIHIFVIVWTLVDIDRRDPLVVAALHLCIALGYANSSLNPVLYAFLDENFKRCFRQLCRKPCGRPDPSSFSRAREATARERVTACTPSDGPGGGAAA

On to `Oc1ccc2c(c1)[C@@]13CCCC[C@@]1(O)[C@@H](C2)N(CC1CCC1)CC3` [butorphanol, (−)17-(Cyclobutylmethyl)morphinan-3,14-diol], for which, in assay [1], the “activity at opioid receptors” value is recorded as “partial agonist”. Moreover, the “activity at κ-opioid receptors” value in assay [2] is reported as “pure agonist”. Also, the “cold allodynia withdrawal threshold in comparison to the control readings” value in assay [3] (oral) was “significant increase”. In addition, the “time of peak effect post-administration (cold allodynia)” value in assay [3] (oral) was 30 min. Further, the cold allodynia score entry in assay [3] (p.o. 0.01, 0.03, 0.1, 0.3 mg/kg, FIG. 18) was “dose dependent decrease”. For the same compound, the “activity at the δ-opioid receptor” value in assay [4] was “preponderantly antagonist activity”. In addition, the mechanical withdrawal threshold entry is “dose dependent increase; also recorded: significant increase” in assay [5] (oral 1, 3, 10, 30 mg/kg, FIG. 15) and “dose dependent increase; also recorded: significant increase” in assay [7] (p.o. 0.01, 0.03, 0.1, 0.3 mg/kg, FIG. 17). Besides, the “time of peak effect post-administration (mechanical allodynia)” value in assay [5] (oral) and in assay [7] (oral) was 30 min throughout. Also, the “antinociceptive effect, position of the % MPE time-effect curve” value in assay [6] (intra-colonic) is given as “Top curve”; in assay [6] (intra-gastric), “bottom curve”; in assay [6] (intra-ileal), “second from top curve”.

The record behind these values is US10624887B2, “Compositions of (-)-17-(cyclobutylmethyl)morphinan-3,14,-diol” (priority 2010, dated 2020).
